Several values for one entry are separate records, joined by “and”; a condition that tells them apart may be missing. Identical values can stand only once. Inconclusive results are not listed.
Test system: mice, P1798 lymphosarcoma sc, survival or tumor weight T/C
Test: NCI In Vivo Anticancer Drug Screen. Data for tumor model P1798 Lymphosarcoma (subcutaneous) in unknown mice
Protocol: The antitumor activity of compounds was measured in mice bearing transplantable tumors. Survival or tumor size were measured and the results are expressed as the measurement made in the treated group (T) divided by the measurement made in the vehicle treated control group (C). The tumor model used in this assay is P1798 Lymphosarcoma (subcutaneous) in unknown mice

[1] = endpoint: mean tumor weight, dose: 0.63 mg/kg/injection, schedule: Q01DX010 (ip), vehicle: saline, higher = larger tumour
[2] = endpoint: mean tumor weight, dose: 1.25 mg/kg/injection, schedule: Q01DX010 (ip), vehicle: saline, higher = larger tumour
[3] = endpoint: mean tumor weight, dose: 2.5 mg/kg/injection, schedule: Q01DX010 (ip), vehicle: saline, higher = larger tumour
[4] = endpoint: mean tumor weight, dose: 5.0 mg/kg/injection, schedule: Q01DX010 (ip), vehicle: saline, higher = larger tumour
[5] = endpoint: mean tumor weight, dose: 62.5 mg/kg/injection, schedule: Q01DX010 (ip), vehicle: carboxymethylcellulose (CMC), higher = larger tumour
[6] = endpoint: mean tumor weight, dose: 125.0 mg/kg/injection, schedule: Q01DX010 (ip), vehicle: carboxymethylcellulose (CMC), higher = larger tumour
[7] = endpoint: mean tumor weight, dose: 250.0 mg/kg/injection, schedule: Q01DX010 (ip), vehicle: carboxymethylcellulose (CMC), higher = larger tumour
[8] = endpoint: mean tumor weight, dose: 25.0 mg/kg/injection, schedule: Q01DX010 (ip), vehicle: carboxymethylcellulose (CMC), higher = larger tumour
[9] = endpoint: mean tumor weight, dose: 50.0 mg/kg/injection, schedule: Q01DX010 (ip), vehicle: carboxymethylcellulose (CMC), higher = larger tumour
[10] = endpoint: mean tumor weight, dose: 2.0 mg/kg/injection, schedule: Q01DX010 (ip), vehicle: carboxymethylcellulose (CMC), higher = larger tumour
[11] = endpoint: mean tumor weight, dose: 4.0 mg/kg/injection, schedule: Q01DX010 (ip), vehicle: carboxymethylcellulose (CMC), higher = larger tumour
[12] = endpoint: mean tumor weight, dose: 8.0 mg/kg/injection, schedule: Q01DX010 (ip), vehicle: carboxymethylcellulose (CMC), higher = larger tumour

NC(=O)c1ccc(N)nc1
T/C [1]: 71 % of control | T/C [2]: 82 % of control | T/C [3]: 52 % of control | T/C [4]: 21 % of control

OCC1OC(n2cnc3c(Cl)ncnc32)C(O)C1O (stereo not drawn)
T/C [5]: 104 % of control | T/C [6]: 107 % of control | T/C [7]: 92 % of control | T/C (endpoint: mean tumor weight, dose: 500.0 mg/kg/injection, schedule: Q01DX010 (ip), vehicle: carboxymethylcellulose (CMC), higher = larger tumour): 91 % of control and 95 % of control | T/C (endpoint: mean tumor weight, dose: 1000.0 mg/kg/injection, schedule: Q01DX010 (ip), vehicle: carboxymethylcellulose (CMC), higher = larger tumour): 79 % of control

CC(=O)[C@@]1(O)CC[C@H]2[C@@H]3C[C@H](C)C4=CC(=O)C=C[C@]4(C)[C@@]3(F)[C@@H](O)C[C@@]21C
T/C (endpoint: mean tumor weight, dose: 8.0 mg/kg/injection, schedule: Q01DX010 (sc), vehicle: steriod suspending solution, higher = larger tumour): 37 % of control | T/C (endpoint: mean tumor weight, dose: 16.0 mg/kg/injection, schedule: Q01DX010 (sc), vehicle: steriod suspending solution, higher = larger tumour): 18 % of control

O=[n+]1c2c(n([O-])c3ccccc31)-c1cccc3cccc-2c13
T/C (endpoint: mean tumor weight, dose: 25.0 mg/kg/injection, schedule: Q01DX010 (ip), vehicle: saline, higher = larger tumour): 84 % of control | T/C (endpoint: mean tumor weight, dose: 50.0 mg/kg/injection, schedule: Q01DX010 (ip), vehicle: saline, higher = larger tumour): 37 % of control | T/C (endpoint: mean tumor weight, dose: 100.0 mg/kg/injection, schedule: Q01DX010 (ip), vehicle: saline, higher = larger tumour): 36 % of control | T/C (endpoint: mean tumor weight, dose: 200.0 mg/kg/injection, schedule: Q01DX010 (ip), vehicle: saline, higher = larger tumour): 19 % of control

COC1=C(N)C(=O)c2nc(-c3nc(C(=O)O)c(C)c(-c4ccc(OC)c(OC)c4O)c3N)ccc2C1=O
T/C (endpoint: mean tumor weight, dose: 0.05 mg/kg/injection, schedule: Q01DX010 (ip), vehicle: other, higher = larger tumour): 65 % of control | T/C (endpoint: mean tumor weight, dose: 0.1 mg/kg/injection, schedule: Q01DX010 (ip), vehicle: other, higher = larger tumour): 39 % of control

O=C(O)c1ccc(-c2ccccc2)cc1
T/C [5]: 101 % of control | T/C [6]: 92 % of control | T/C [7]: 95 % of control

S=P(N1CC1)(N1CC1)N1CC1
T/C [1]: 95 % of control | T/C [2]: 64 % of control | T/C [3]: 24 % of control | T/C (endpoint: median survival time, dose: 0.75 mg/kg/injection, schedule: Q01DX010 (sc), vehicle: water, higher = longer survival): 97 % of control | T/C (endpoint: median survival time, dose: 1.5 mg/kg/injection, schedule: Q01DX010 (sc), vehicle: water, higher = longer survival): 105 % of control | T/C (endpoint: median survival time, dose: 3.0 mg/kg/injection, schedule: Q01DX010 (sc), vehicle: water, higher = longer survival): 103 % of control | T/C (endpoint: median survival time, dose: 6.0 mg/kg/injection, schedule: Q01DX010 (sc), vehicle: water, higher = longer survival): 47 % of control | T/C (endpoint: median survival time, dose: 12.0 mg/kg/injection, schedule: Q01DX010 (sc), vehicle: water, higher = longer survival): 27 % of control

CS(=O)(=O)OCCCl
T/C [8]: 89 % of control | T/C [9]: 88 % of control

O=C(Nc1ccc(C2=NCCCN2)cc1)c1ccc(NC(=O)c2ccc(C3=NCCCN3)cc2)cc1
T/C [10]: 73 % of control | T/C [11]: 50 % of control | T/C [12]: 15 % of control

C[C@@H]1C[C@@H]([C@H](O)CC2CC(=O)NC(=O)C2)C(=O)[C@@H](C)C1
T/C (endpoint: mean tumor weight, dose: 1.6 mg/kg/injection, schedule: Q01DX010 (ip), vehicle: water, higher = larger tumour): 86 % of control | T/C (endpoint: mean tumor weight, dose: 3.1 mg/kg/injection, schedule: Q01DX010 (ip), vehicle: water, higher = larger tumour): 96 % of control | T/C (endpoint: mean tumor weight, dose: 6.3 mg/kg/injection, schedule: Q01DX010 (ip), vehicle: water, higher = larger tumour): 96 % of control | T/C (endpoint: mean tumor weight, dose: 12.5 mg/kg/injection, schedule: Q01DX010 (ip), vehicle: water, higher = larger tumour): 98 % of control

C[C@H](N)C(=O)N[C@@H]1[C@H]2C(=C(O)C[C@@H](O)[C@@H]2O)C(=O)O[C@@H]1C
T/C (endpoint: mean tumor weight, dose: 125.0 mg/kg/injection, schedule: Q01DX010 (ip), vehicle: saline, higher = larger tumour): 61 % of control | T/C (endpoint: mean tumor weight, dose: 250.0 mg/kg/injection, schedule: Q01DX010 (ip), vehicle: saline, higher = larger tumour): 84 % of control | T/C (endpoint: mean tumor weight, dose: 500.0 mg/kg/injection, schedule: Q01DX010 (ip), vehicle: saline, higher = larger tumour): 64 % of control

COc1cccc2c1C(=O)c1c(O)c3c(c(O)c1C2=O)C[C@@](O)(C(=O)CO)C[C@@H]3OC1CC(N)C(O)C(C)O1 (stereo partly drawn)
T/C (endpoint: median survival time, dose: 0.25 mg/kg/injection, schedule: Q01DX010 (ip), vehicle: water, higher = longer survival): 84 % of control | T/C (endpoint: median survival time, dose: 0.5 mg/kg/injection, schedule: Q01DX010 (ip), vehicle: water, higher = longer survival): 102 % of control | T/C (endpoint: median survival time, dose: 1.0 mg/kg/injection, schedule: Q01DX010 (ip), vehicle: water, higher = longer survival): 93 % of control | T/C (endpoint: median survival time, dose: 1.0 mg/kg/injection, schedule: Q04DX007 (ip), vehicle: water, higher = longer survival): 108 % of control | T/C (endpoint: median survival time, dose: 2.0 mg/kg/injection, schedule: Q01DX010 (ip), vehicle: water, higher = longer survival): 36 % of control | T/C (endpoint: median survival time, dose: 2.0 mg/kg/injection, schedule: Q04DX007 (ip), vehicle: water, higher = longer survival): 107 % of control | T/C (endpoint: median survival time, dose: 4.0 mg/kg/injection, schedule: Q01DX010 (ip), vehicle: water, higher = longer survival): 28 % of control

CC(CCC(C)OS(C)(=O)=O)OS(C)(=O)=O (stereo not drawn)
T/C (endpoint: mean tumor weight, dose: 5.0 mg/kg/injection, schedule: Q01DX010 (ip), vehicle: carboxymethylcellulose (CMC), higher = larger tumour): 72 % of control | T/C (endpoint: mean tumor weight, dose: 10.0 mg/kg/injection, schedule: Q01DX010 (ip), vehicle: carboxymethylcellulose (CMC), higher = larger tumour): 93 % of control | T/C (endpoint: mean tumor weight, dose: 20.0 mg/kg/injection, schedule: Q01DX010 (ip), vehicle: carboxymethylcellulose (CMC), higher = larger tumour): 102 % of control | T/C (endpoint: mean tumor weight, dose: 40.0 mg/kg/injection, schedule: Q01DX010 (ip), vehicle: carboxymethylcellulose (CMC), higher = larger tumour): 83 % of control

Nc1ncnc2c1ncn2C1OC(CO)CC1O (stereo not drawn)
T/C (endpoint: mean tumor weight, dose: 37.5 mg/kg/injection, schedule: Q01DX010 (ip), vehicle: carboxymethylcellulose (CMC), higher = larger tumour): 111 % of control | T/C (endpoint: mean tumor weight, dose: 75.0 mg/kg/injection, schedule: Q01DX010 (ip), vehicle: carboxymethylcellulose (CMC), higher = larger tumour): 85 % of control

CC(C)=C(Br)CC[C@@H](C)[C@H]1CC[C@@]2(C)C3=C(CC[C@]12C)[C@@]1(C)CC[C@H](O)C(C)(C)[C@@H]1CC3
T/C (endpoint: mean tumor weight, dose: 100.0 mg/kg/injection, schedule: Q01DX011 (sc), vehicle: steriod suspending solution, higher = larger tumour): 151 % of control | T/C (endpoint: mean tumor weight, dose: 200.0 mg/kg/injection, schedule: Q01DX011 (sc), vehicle: steriod suspending solution, higher = larger tumour): 186 % of control

Nc1nc(=S)c2[nH]cnc2[nH]1
T/C (endpoint: mean tumor weight, dose: 0.12 mg/kg/injection, schedule: Q01DX010 (ip), vehicle: carboxymethylcellulose (CMC), higher = larger tumour): 77 % of control | T/C (endpoint: mean tumor weight, dose: 0.25 mg/kg/injection, schedule: Q01DX010 (ip), vehicle: carboxymethylcellulose (CMC), higher = larger tumour): 64 % of control | T/C (endpoint: mean tumor weight, dose: 0.5 mg/kg/injection, schedule: Q01DX010 (ip), vehicle: carboxymethylcellulose (CMC), higher = larger tumour): 81 % of control

Cc1cc(N(CCCl)CCCl)ccc1N=Nc1ccccc1C(=O)O
T/C (endpoint: mean tumor weight, dose: 3.75 mg/kg/injection, schedule: Q01DX010 (ip), vehicle: carboxymethylcellulose (CMC), higher = larger tumour): 40 % of control | T/C (endpoint: mean tumor weight, dose: 7.5 mg/kg/injection, schedule: Q01DX010 (ip), vehicle: carboxymethylcellulose (CMC), higher = larger tumour): 26 % of control

CN(C)c1ccc(Nc2c3ccccc3nc3ccccc23)cc1
T/C (endpoint: mean tumor weight, dose: 3.15 mg/kg/injection, schedule: Q01DX010 (ip), vehicle: carboxymethylcellulose (CMC), higher = larger tumour): 84 % of control | T/C (endpoint: mean tumor weight, dose: 6.3 mg/kg/injection, schedule: Q01DX010 (ip), vehicle: carboxymethylcellulose (CMC), higher = larger tumour): 86 % of control | T/C [8]: 36 % of control | T/C [9]: 10 % of control

c1ccc(COCC[P+](c2ccccc2)(c2ccccc2)c2ccccc2)cc1
T/C [4]: 53 % of control | T/C (endpoint: mean tumor weight, dose: 8.0 mg/kg/injection, schedule: Q01DX010 (ip), vehicle: saline, higher = larger tumour): 49 % of control

CCNc1nncs1
T/C (endpoint: mean tumor weight, dose: 18.0 mg/kg/injection, schedule: Q01DX010 (ip), vehicle: carboxymethylcellulose (CMC), higher = larger tumour): 93 % of control | T/C (endpoint: mean tumor weight, dose: 37.0 mg/kg/injection, schedule: Q01DX010 (ip), vehicle: carboxymethylcellulose (CMC), higher = larger tumour): 67 % of control

NC(=O)N(CCCl)N=O
T/C (endpoint: mean tumor weight, dose: 1.0 mg/kg/injection, schedule: Q01DX010 (ip), vehicle: carboxymethylcellulose (CMC), higher = larger tumour): 104 % of control | T/C [10]: 115 % of control | T/C [11]: 116 % of control | T/C [12]: 61 % of control

CC1(O)CCC2C3CCC4=CC(=O)CCC4C3CCC21C (stereo not drawn)
T/C (endpoint: mean tumor weight, dose: 75.0 mg/kg/injection, schedule: Q01DX010 (sc), vehicle: steriod suspending solution, higher = larger tumour): 116 % of control | T/C (endpoint: mean tumor weight, dose: 150.0 mg/kg/injection, schedule: Q01DX010 (sc), vehicle: steriod suspending solution, higher = larger tumour): 115 % of control | T/C (endpoint: mean tumor weight, dose: 300.0 mg/kg/injection, schedule: Q01DX010 (sc), vehicle: steriod suspending solution, higher = larger tumour): 109 % of control | T/C (endpoint: mean tumor weight, dose: 600.0 mg/kg/injection, schedule: Q01DX010 (sc), vehicle: steriod suspending solution, higher = larger tumour): 122 % of control

S=P(N1CCOCC1)(N1CC1)N1CC1
T/C (endpoint: mean tumor weight, dose: 6.25 mg/kg/injection, schedule: Q01DX010 (ip), vehicle: carboxymethylcellulose (CMC), higher = larger tumour): 82 % of control | T/C (endpoint: mean tumor weight, dose: 12.5 mg/kg/injection, schedule: Q01DX010 (ip), vehicle: carboxymethylcellulose (CMC), higher = larger tumour): 60 % of control

Reference: PubChem BioAssay AID290 (DTP/NCI, 2004)
